The values below come from US6706750B1, “Indole derivatives process for their preparation, pharmaceutical compositions containing them and their medicinal application” (priority 1999, dated 2004).

The target of one series is T1, 5-HT2C receptor (Homo sapiens, UniProt P28335).
T1 construct: expressed in transfected cells; host or cells: CHO cell line
T1 sequence (P28335 33-458): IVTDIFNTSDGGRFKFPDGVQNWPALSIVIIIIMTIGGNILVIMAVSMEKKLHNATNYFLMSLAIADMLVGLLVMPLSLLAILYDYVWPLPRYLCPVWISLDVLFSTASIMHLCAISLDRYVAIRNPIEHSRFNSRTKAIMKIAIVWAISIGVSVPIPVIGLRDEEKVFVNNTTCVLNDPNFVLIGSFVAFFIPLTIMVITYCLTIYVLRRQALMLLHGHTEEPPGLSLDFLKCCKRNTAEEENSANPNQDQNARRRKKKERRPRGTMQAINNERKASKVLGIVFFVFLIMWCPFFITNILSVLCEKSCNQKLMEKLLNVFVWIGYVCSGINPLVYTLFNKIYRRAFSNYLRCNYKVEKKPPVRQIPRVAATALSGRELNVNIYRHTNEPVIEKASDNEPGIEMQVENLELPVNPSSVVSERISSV
Put plainly: Radioligand binding to the 5-HT2C receptor ([3H]-5-HT, CHO cell line). The procedure: (§1) 1. Binding to Serotonin Receptors
(§2) The binding of compounds of formula (I) to serotonin receptors was determined in vitro by standard methods. The preparations were investigated in accordance with the assays given hereinafter.
Method (a): For the binding to the 5-HT2C receptor the 5-HT2C receptors were radiolabelled with [^3H]-5-HT. The affinity of the compounds for 5-HT2C receptors in a CHO cell line was determined according to the procedure of D. Hoyer, G. Engel and H.O. Kalkman, European J. Pharmacol., 1985, 118, 13-23.

Another series addresses T2, 5-HT2A receptor (Homo sapiens, UniProt P28223).
T2 construct: expressed in transfected cells; host or cells: CHO cell line
Description: Radioligand binding to the 5-HT2A receptor ([125I]-DOI, CHO cell line). The procedure:
as §1, §2
Method (c): For the binding to the 5-HT2A receptor the 5-HT2A receptors were radiolabelled with [^125I]-DOI. The affinity of the compounds for 5-HT2A receptors in a CHO cell line was determined according to the procedure of D. J. McKenna and S. J. Peroutka, J. Neurosci., 1989, 9/10, 3482-90.

The target of a further series is T3, human 5-HT2B receptors (Homo sapiens, UniProt P41595).
T3 construct: expressed in transfected cells; host or cells: CHO cell line
T3 sequence (P41595 whole entry): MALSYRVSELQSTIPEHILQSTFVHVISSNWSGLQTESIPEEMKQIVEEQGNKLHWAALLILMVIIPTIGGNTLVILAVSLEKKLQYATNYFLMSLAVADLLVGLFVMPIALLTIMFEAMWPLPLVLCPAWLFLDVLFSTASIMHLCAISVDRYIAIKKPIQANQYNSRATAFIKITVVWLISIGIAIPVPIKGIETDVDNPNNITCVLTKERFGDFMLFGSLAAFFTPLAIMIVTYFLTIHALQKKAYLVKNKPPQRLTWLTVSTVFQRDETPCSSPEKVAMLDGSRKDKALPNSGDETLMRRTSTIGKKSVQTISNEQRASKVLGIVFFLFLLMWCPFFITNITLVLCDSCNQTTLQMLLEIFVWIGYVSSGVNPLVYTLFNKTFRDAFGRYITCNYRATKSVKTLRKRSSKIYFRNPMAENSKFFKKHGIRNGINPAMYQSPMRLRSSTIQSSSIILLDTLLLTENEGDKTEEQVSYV
Put plainly: Radioligand binding to the 5-HT2B receptor ([3H]-5-HT, CHO cell line). The procedure:
as §1, §2
Method (b): For the binding to the 5-HT2B receptor the 5-HT2B receptors were radiolabelled with [^3H]-5-HT. The affinity of the compounds for human 5-HT2B receptors in a CHO cell line was determined according to the procedure of K. Schmuck, C. Ullmer, P. Engels and H. Lubbert, FEBS Lett., 1994, 342, 85-90.

The target of another series is T4, h5-HT2A receptors (Homo sapiens, UniProt P28223).
T4 construct: expressed in transfected cells; host or cells: CHO cells
T4 sequence (P28223 whole entry): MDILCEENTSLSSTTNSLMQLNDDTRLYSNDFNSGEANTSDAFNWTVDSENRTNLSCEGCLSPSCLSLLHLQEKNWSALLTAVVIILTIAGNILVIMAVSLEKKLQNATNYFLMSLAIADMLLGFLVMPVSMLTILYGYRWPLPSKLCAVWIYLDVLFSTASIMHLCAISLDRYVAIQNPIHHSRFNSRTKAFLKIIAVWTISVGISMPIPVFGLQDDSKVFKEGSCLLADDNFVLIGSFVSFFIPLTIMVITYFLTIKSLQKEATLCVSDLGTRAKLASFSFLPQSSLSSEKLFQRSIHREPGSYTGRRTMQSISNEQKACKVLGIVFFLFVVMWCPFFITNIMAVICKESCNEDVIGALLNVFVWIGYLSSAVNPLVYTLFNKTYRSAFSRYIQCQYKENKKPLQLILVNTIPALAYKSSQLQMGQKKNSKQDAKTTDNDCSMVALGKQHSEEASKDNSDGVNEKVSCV
Description: Functional activity, FLIPR calcium assay in CHO cells expressing h5-HT2A. In kind it is cell-based. The procedure:
(§3) The functional activity of compounds of formula (I) was assayed using a Fluorimetric Imaging Plate reader (FLIPR) in the following manner.
(§4) CHO cells expressing either the h5-HT2C or h5-HT2A receptors were counted and plated into standard 96 well microtitre plates before the day of testing to give a confluent monolayer. The following day the cells were dye loaded with the calcium sensitive dye Fluo 3-AM by incubation with serum free culture maintenance media containing pluronic acid and Fluo 3-AM dissolved in DMSO at 37° C. in a CO2 incubator at 95% humidity for approximately 90 minutes. Unincorporated dye was removed by washing with Hanks balanced salt solution containing 20 mM HEPES and 2.5 mM probenecid (the assay buffer) using an automated cell washer to leave a total volume of 100 μL/well.
(§5) The drug (dissolved in 50 μL of assay buffer) was added at a rate of 70 μL/sec to each well of the FLIPR 96 well plate during fluorescence measurements. The measurements are taken at 1 sec intervals and the maximum fluorescent signal was measured (approx 10-15 secs after drug addition) and compared with the response produced by 10 μM 5-HT (defined as 100%) to which it is expressed as a percentage response (relative efficacy). Dose response curves were constructed using Graphpad Prism (Graph Software Inc.).

The next series has as its target T5, h5-HT2C (Homo sapiens, UniProt P28335).
T5 construct: expressed in transfected cells; host or cells: CHO cells
T5 sequence (P28335 33-458): T1 sequence (P28335 33-458)
Description: Functional activity, FLIPR calcium assay in CHO cells expressing h5-HT2C. In kind it is cell-based. The method, then:
as §3, §4, §5

For series [1] the following is noted: cited from earlier work.
For series [2] the following is noted: cited from earlier work. This is another data set of the same source.

Structures are written as SMILES. Read-outs that look alike come from different tables or passages of the source.

T2 sequence (P28223 whole entry): as above

A word on the Ki: it is a dissociation constant, usually derived from enzyme kinetics or from competition with a known ligand. In general, EC50 refers to the concentration giving half of the maximal effect. For `COc1cc2c(cc1F)c1c(n2C[C@H](C)N)CCC1` [Example 37, (S)-1-(7-fluoro-6-methoxy-1,2,3,4-tetrahydrocyclopent[b]indol-4-yl)-2-propylamine], the Ki is 41 nM on 5-HT2C receptor, 86 nM at 5-HT2A receptor and 65 nM on human 5-HT2B receptors. In addition, the Emax on h5-HT2A receptors (CHO, maximum fluorescent signal compared with 10 μM 5-HT (defined as 100%), read-out: h5-HT2A Relative Efficacy) was 28%; on h5-HT2C (CHO, maximum fluorescent signal compared with 10 μM 5-HT (defined as 100%), read-out: h5-HT2C Relative Efficacy), 84%. For the same molecule, the EC50 was found to be 2990 nM on h5-HT2A receptors (FLIPR, CHO cells) and 127 nM at h5-HT2C (FLIPR, CHO cells).

In general, melting point refers to the temperature, or range, at which the solid turns liquid. In the case of `C[C@@H](N)Cn1c2c(c3cccc(Cl)c31)CCC2` [Example 43], the melting point was in the range of 299 to 302 °C. On 5-HT2C receptor, this molecule returned a Ki of 62 nM. Further, the inhibitory constant (Ki) on 5-HT2A receptor ([125I]-DOI, CHO cell line, read-out: Ki(2A)) amounted to 167 nM. Also, the Ki on human 5-HT2B receptors ([3H]-5-HT, human receptor, CHO cell line, read-out: Ki(2B)) came out at 162 nM.

On to `FC(F)(F)c1cccc(N2CCNCC2)c1` [TFWPP, trifluoromethylphenylpiperazine], for which the “food intake in rats” value in series [1] is on record as “reduce food intake”.

Regarding `Clc1cccc(N2CCNCC2)c1` [mCPP, m-chlorophenylpiperazine], the “food intake in rats” value in series [1] was “reduce food intake”. The “appetite and body weight of obese subjects” value in series [2] (obese male and female subjects, subchronic treatment for 14 days) is “decreased the appetite and body weight”. Further, the “food intake in female volunteers” value in series [2] (single injection, female volunteers) was “decreased food intake”.
